Like-named read-outs stand apart in the source and are kept apart here.

The target in the assay is T1, GLP-1 receptor (Homo sapiens, UniProt P43220).
T1 construct: expressed in transfected cells
The experiment in a line: HEK293/CRE-luc/GLP-1R cell luciferase reporter test (agonistic effect on GLP-1 receptor). Format: cell-based. The settings on record: HEK293/CRE-luc/GLP-1R cells. The protocol:
1. HEK293/CRE-luc/GLP-1β cell viability
Cell: HEK293/CRE-luc/GLP-1R
Cell culture medium: DMEM+10% FBS+400 μg/ml G418+100 μg/ml Hygromycin B
Frozen stock solution: 90% FBS, 10% (V/V) DMSO
Detection buffer: DMEM+1% FBS
Cells were cultured in DMEM medium+10% FBS+400 μg/ml G418+100 μg/ml Hygromycin B in a CO2 incubator at 37° C., and passaged once every 3-4 days.
Cell plating: Trypsinization adjusted the cell density to 1.67×10^5 cells/mL; 60 μL of cells per well (10000 cells/well) was inoculated in a 384-well plate containing compounds; A NC well (negative control) and a background well (no cells) were set. Incubation was performed for about 18+2 h in the incubator.
Compounds were serially diluted with the detection buffer, and the detection concentration was 0.01 nM-1000 nM.
The cell culture plate was removed and all supernatant was aspirated from the cells. The cells were washed gently 2 times with 1×PBS.
The diluted compound was added to a 384-well plate (10 μL/well), and three replicate wells were set for each concentration. 10 μL of the detection buffer was added to the NC well, sealed and incubated at 37° C. for 6 hours.
The plate was removed, the cells were allowed to equilibrate to room temperature (at least 15 min), and then all supernatant was aspirated from the cells.
Steady-Glo® Reagent was added to the sample well at 10 μL/well and incubated at room temperature for 5 min to lyse the cells.
The test results were read with a BMG microplate reader.
The mean background value was calculated.
The induction factor (Fold of induction, FI)=(induction well value−background value)/(negative control well value −background value) was calculated.
The EC50 value of the sample was calculated using Graphpad Prim 8.0 software using four-parameter fitting analysis.
Mean and standard error (Mean±SEM) were calculated for all results and Graphpad Prism software was used for statistical analysis. Specific data were presented in the form of graphs. P<0.05 was considered to be statistically different.

[1] abbreviates: 6 hours incubation, class symbols, read-out: EC50.
Setting [2] is: bound stated, read-out: EC50 value.

T1 sequence (P43220 24-463): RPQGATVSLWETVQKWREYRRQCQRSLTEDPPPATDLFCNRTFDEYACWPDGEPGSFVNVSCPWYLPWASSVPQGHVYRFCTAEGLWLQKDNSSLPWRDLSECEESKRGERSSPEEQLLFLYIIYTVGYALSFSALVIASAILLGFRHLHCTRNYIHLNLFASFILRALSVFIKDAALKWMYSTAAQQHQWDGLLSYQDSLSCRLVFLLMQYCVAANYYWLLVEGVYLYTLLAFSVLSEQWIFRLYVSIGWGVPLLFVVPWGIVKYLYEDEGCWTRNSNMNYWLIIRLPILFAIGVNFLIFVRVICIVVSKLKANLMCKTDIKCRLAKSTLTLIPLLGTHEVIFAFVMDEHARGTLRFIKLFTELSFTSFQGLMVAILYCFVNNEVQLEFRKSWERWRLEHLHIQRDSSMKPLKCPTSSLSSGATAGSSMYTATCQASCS

For the compound `CC1(c2ccc(Cl)cc2F)Oc2cccc(C3CCN(Cc4nc5sc(C(=O)O)cc5n4C[C@@H]4CCO4)CC3)c2O1` (stereo partly drawn) [Compound 4, 2-((4-(2-(4-chloro-2-fluorophenyl)-2-methylbenzo[d][1,3]dioxol-4-yl)piperidin-1-yl)methyl)-1-(((S)-oxetan-2-yl)methyl)-1H-thieno[2,3-d]imidazole-5-carboxylic acid], the EC50 was less than 10 nM under setting [1] and less than 10 nM under setting [2].

`CC1(c2ccc(C#N)cc2F)Oc2cccc(C3CCN(Cc4nc5sc(C(=O)O)cc5n4C[C@@H]4CCO4)CC3)c2O1` (stereo partly drawn) [Compound 5, 2-((4-(2-(4-cyano-2-fluorophenyl)-2-methylbenzo[d][1,3]dioxol-4-yl)piperidin-1-yl)methyl)-1-(((S)-oxetan-2-yl)methyl)-1H-thieno[2,3-d]imidazole-5-carboxylic acid]: the EC50 is, setting by setting: under setting [1], less than 10 nM; under setting [2], less than 10 nM.

Consider `N#Cc1ccc(COc2cccc(-c3ccc(Cc4nc5sc(C(=O)O)cc5n4C[C@@H]4CCO4)cc3)n2)c(F)c1` [Compound 7, (S)-2-(4-(6-((4-cyano-2-fluorobenzyl)oxy)pyridin-2-yl)benzyl)-1-(oxetan-2-ylmethyl)-1H-thieno[2,3-d]imidazole-5-carboxylic acid], for which the EC50 by setting is: under setting [1], less than 10 nM; under setting [2], less than 10 nM.

Take `Cc1cc(Cc2nc3sc(C(=O)O)cc3n2C[C@@H]2CCO2)c(F)cc1-c1cccc(OCc2ccc(C#N)cc2F)n1` [Compound 8, (S)-2-(4-(6-((4-cyano-2-fluorobenzyl)oxy)pyridin-2-yl)-2-fluoro-5-methylbenzyl)-1-(oxetan-2-ylmethyl)-1H-thieno[2,3-d]imidazole-5-carboxylic acid]: the EC50 is, setting by setting: under setting [1], less than 10 nM; under setting [2], less than 10 nM.

Take `N#Cc1ccc(COc2cccc(-c3cnn(Cc4nc5sc(C(=O)O)cc5n4C[C@@H]4CCO4)c(=O)c3)n2)c(F)c1` [Compound 9, (S)-2-((4-(6-((4-cyano-2-fluorobenzyl)oxy)pyridin-2-yl)-6-oxopyridazin-1(6H)-yl)methyl)-1-(oxetan-2-ylmethyl)-1H-thieno[2,3-d]imidazole-5-carboxylic acid]: the concentration for a half-maximal effect (EC50) by setting is: under setting [1], less than 10 nM; under setting [2], less than 10 nM.

Consider `CC1(c2ccc(Cl)cc2F)Oc2cccc(-c3ccc(Cc4nc5sc(C(=O)O)cc5n4C[C@@H]4CCO4)c(F)c3)c2O1` (stereo partly drawn) [Compound 10, 2-(4-(2-(4-chloro-2-fluorophenyl)-2-methylbenzo[d][1,3]dioxol-4-yl)-2-fluorobenzyl)-1-(((S)-oxetan-2-yl)methyl)-1H-thieno[2,3-d]imidazole-5-carboxylic acid], for which the EC50 under setting [1] is less than 10 nM and the EC50 under setting [2] was less than 10 nM.

On to `CC1(c2ccc(Cl)cc2F)Oc2cccc(-c3ccc(Cc4nc5sc(C(=O)O)cc5n4C[C@@H]4CCO4)cc3)c2O1` (stereo partly drawn) [Compound 11, 2-(4-(2-(4-chloro-2-fluorophenyl)-2-methylbenzo[d][1,3]dioxol-4-yl)benzyl)-1-(((S)-oxetan-2-yl)methyl)-1H-thieno[2,3-d]imidazole-5-carboxylic acid], for which the EC50 reads like this: under setting [1], less than 10 nM; under setting [2], less than 10 nM.

Turning to `N#Cc1ccc(COc2cccc(C3CCN(Cc4nc5sc(C(=O)O)cc5n4C[C@@H]4CCCO4)CC3)n2)c(F)c1` [Compound 12, (S)-2-((4-(6-((4-cyano-2-fluorobenzyl)oxy)pyridin-2-yl)piperidin-1-yl)methyl)-1-((tetrahydrofuran-2-yl)methyl)-1H-thieno[2,3-d]imidazole-5-carboxylic acid], the EC50 under setting [1] was less than 10 nM and the EC50 under setting [2] was less than 10 nM.

Take `N#Cc1ccc(COc2cccc(N3CCN(Cc4nc5sc(C(=O)O)cc5n4C[C@@H]4CCO4)CC3)n2)c(F)c1` [Compound 13, (S)-2-((4-(6-((4-cyano-2-fluorobenzyl)oxy)pyridin-2-yl)piperazin-1-yl)methyl)-1-(oxetan-2-ylmethyl)-1H-thieno[2,3-d]imidazole-5-carboxylic acid]: the EC50 under setting [1] is less than 10 nM and the EC50 under setting [2] is less than 10 nM.

`N#Cc1ccc(COc2ncccc2C2CCN(Cc3nc4sc(C(=O)O)cc4n3C[C@@H]3CCO3)CC2)c(F)c1` [Compound 15, (S)-2-((4-(2-((4-cyano-2-fluorobenzyl)oxy)pyridin-3-yl)piperidin-1-yl)methyl)-1-(oxetan-2-ylmethyl)-1H-thieno[2,3-d]imidazole-5-carboxylic acid]: the EC50 reads like this: under setting [1], less than 10 nM; under setting [2], less than 10 nM.

For `N#Cc1ccc(COc2cccc(C3CCN(Cc4nc5cc(C(=O)O)sc5n4C[C@@H]4CCO4)CC3)n2)c(F)c1` [Compound 16, (S)-2-((4-(6-((4-cyano-2-fluorobenzyl)oxy)pyridin-2-yl)piperidin-1-yl)methyl)-3-(oxetan-2-ylmethyl)-3H-thieno[2,3-d]imidazole-5-carboxylic acid], the 50% effective concentration (EC50) was less than 10 nM under setting [1] and less than 10 nM under setting [2].

In the case of `N#Cc1ccc(COc2nc(C3CCN(Cc4nc5sc(C(=O)O)cc5n4C[C@@H]4CCO4)CC3)ccc2F)c(F)c1` [Compound 17, (S)-2-((4-(6-((4-cyano-2-fluorobenzyl)oxy)-5-fluoropyridin-2-yl)piperidin-1-yl)methyl)-1-(oxetan-2-ylmethyl)-1H-thieno[2,3-d]imidazole-5-carboxylic acid], the EC50 by setting is: under setting [1], less than 10 nM; under setting [2], less than 10 nM.

For the compound `N#Cc1ccc(COc2nc(-c3ccc(Cc4nc5sc(C(=O)O)cc5n4C[C@@H]4CCO4)c(F)c3)ccc2F)c(F)c1` [Compound 18, (S)-2-(4-(6-((4-cyano-2-fluorobenzyl)oxy)-5-fluoropyridin-2-yl)-2-fluorobenzyl)-1-(oxetan-2-ylmethyl)-1H-thieno[2,3-d]imidazole-5-carboxylic acid], the EC50 by setting is: under setting [1], less than 10 nM; under setting [2], less than 10 nM.

In the case of `N#Cc1ccc(COc2cccc(-c3ccc(Cc4nc5sc(C(=O)O)cc5n4C[C@@H]4CCO4)c(F)c3)n2)cc1` [Compound 20, (S)-2-(4-(6-((4-cyanobenzyl)oxy)pyridin-2-yl)-2-fluorobenzyl)-1-(oxetan-2-ylmethyl)-1H-thieno[2,3-d]imidazole-5-carboxylic acid], the EC50 was less than 10 nM under setting [1] and less than 10 nM under setting [2].

On to `N#Cc1ccc(COc2cccc(-c3cc(F)c(Cc4nc5sc(C(=O)O)cc5n4C[C@@H]4CCO4)cc3F)n2)c(F)c1` [Compound 21, (S)-2-(4-(6-((4-cyano-2-fluorobenzyl)oxy)pyridin-2-yl)-2,5-difluorobenzyl)-1-(oxetan-2-ylmethyl)-1H-thieno[2,3-d]imidazole-5-carboxylic acid], for which the EC50 was less than 10 nM under setting [1] and less than 10 nM under setting [2].

As to `N#Cc1ccc(COc2nc(-c3cc(F)c(Cc4nc5sc(C(=O)O)cc5n4C[C@@H]4CCO4)cc3F)ccc2F)c(F)c1` [Compound 22, (S)-2-(4-(6-((4-cyano-2-fluorobenzyl)oxy)-5-fluoropyridin-2-yl)-2,5-difluorobenzyl)-1-(oxetan-2-ylmethyl)-1H-thieno[2,3-d]imidazole-5-carboxylic acid], the EC50 under setting [1] was less than 10 nM and the EC50 under setting [2] is less than 10 nM.

Consider `N#Cc1ccc(COc2cccc(-c3cc(F)c(Cc4nc5sc(C(=O)O)cc5n4C[C@@H]4CCO4)cc3F)n2)cc1` [Compound 23, (S)-2-(4-(6-((4-cyanobenzyl)oxy)pyridin-2-yl)-2,5-difluorobenzyl)-1-(oxetan-2-ylmethyl)-1H-thieno[2,3-d]imidazole-5-carboxylic acid], for which the EC50 was less than 10 nM under setting [1] and less than 10 nM under setting [2].

Source of the values: US20240124470A1, “FIVE-MEMBERED RING DERIVATIVE AND MEDICAL USE THEREOF” (SICHUAN HAISCO PHARMACEUTICAL CO., LTD., priority 2020, published 2024).
